Results as given in PubChem BioAssay (NCI).
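1) Cells in 96-well plates. 2) Compound, 48 h, 5 concentrations. 3) Linear interpolation between surrounding doses. 4) Unreached endpoint = highest concentration. GI50 marks 50% less growth. TGI is the concentration that stops growth completely.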

Key:
Assay in all cases: NCI anticancer screen, dose series, 48 h
CCRF-CEM leukemia = tested on: CCRF-CEM leukemia
HCC-2998 colon = tested on: HCC-2998 colon
HCT-15 colon = tested on: HCT-15 colon
MOLT-4 leukemia = tested on: MOLT-4 leukemia
M14 melanoma = tested on: M14 melanoma
BT-549 breast = tested on: BT-549 breast
KM12 colon = tested on: KM12 colon
HT29 colon = tested on: HT29 colon
SNB-75 CNS = tested on: SNB-75 CNS
EKVX NSCLC = tested on: EKVX NSCLC
NCI-H23 lung = tested on: NCI-H23 lung
PC-3 prostate = tested on: PC-3 prostate
DU-145 prostate = tested on: DU-145 prostate
RXF 393 renal = tested on: RXF 393 renal
RPMI-8226 leukemia = tested on: RPMI-8226 leukemia
UACC-62 melanoma = tested on: UACC-62 melanoma
A549 NSCLC = tested on: A549 NSCLC
SN12C renal = tested on: SN12C renal
SW-620 colon = tested on: SW-620 colon
NCI-H460 lung = tested on: NCI-H460 lung
OVCAR-5 ovarian = tested on: OVCAR-5 ovarian
UACC-257 melanoma = tested on: UACC-257 melanoma
K-562 leukemia = tested on: K-562 leukemia
HS 578T breast = tested on: HS 578T breast
UO-31 renal = tested on: UO-31 renal
HCT-116 colon = tested on: HCT-116 colon
MALME-3M melanoma = tested on: MALME-3M melanoma
SF-539 CNS = tested on: SF-539 CNS
OVCAR-8 ovarian = tested on: OVCAR-8 ovarian
MCF7 breast = tested on: MCF7 breast
TK-10 renal = tested on: TK-10 renal
SK-MEL-28 melanoma = tested on: SK-MEL-28 melanoma
SK-MEL-5 melanoma = tested on: SK-MEL-5 melanoma
NCI-H226 lung = tested on: NCI-H226 lung
MDA-MB-231 breast = tested on: MDA-MB-231 breast
SR leukemia = tested on: SR leukemia
CAKI-1 renal = tested on: CAKI-1 renal
SF-295 CNS = tested on: SF-295 CNS
SF-268 CNS = tested on: SF-268 CNS
OVCAR-4 ovarian = tested on: OVCAR-4 ovarian
HOP-92 NSCLC = tested on: HOP-92 NSCLC
U251 CNS = tested on: U251 CNS
LOX IMVI melanoma = tested on: LOX IMVI melanoma
OVCAR-3 ovarian = tested on: OVCAR-3 ovarian
ACHN renal = tested on: ACHN renal
A498 renal = tested on: A498 renal
NCI/ADR-RES ovarian = tested on: NCI/ADR-RES ovarian
IGROV1 ovarian = tested on: IGROV1 ovarian
786-0 renal = tested on: 786-0 renal
COLO 205 colon = tested on: COLO 205 colon
SK-MEL-2 melanoma = tested on: SK-MEL-2 melanoma
NCI-H522 lung = tested on: NCI-H522 lung
HOP-62 NSCLC = tested on: HOP-62 NSCLC
SNB-19 CNS = tested on: SNB-19 CNS
HL-60(TB) leukemia = tested on: HL-60(TB) leukemia
SK-OV-3 ovarian = tested on: SK-OV-3 ovarian

## N#CC1=C(N)Oc2c(ccc3ccccc23)C1c1ccccc1Cl (configuration not stated)
CCRF-CEM leukemia
  GI50: 0.269 µM
  TGI: 17.2 µM
HCC-2998 colon
  GI50: 0.429 µM
  TGI: 11.6 µM
HCT-15 colon
  GI50: 0.183 µM
  TGI: 11.4 µM
MOLT-4 leukemia
  GI50: 0.447 µM
  TGI: 17.8 µM
M14 melanoma
  GI50: 0.188 µM
  TGI: 3.39 µM
BT-549 breast
  GI50: 1.2 µM
  TGI: 7.74 µM
KM12 colon
  GI50: 0.227 µM
  TGI: 7.9 µM
HT29 colon
  GI50: 0.362 µM
  TGI: 12.6 µM
SNB-75 CNS
  GI50: 0.163 µM
  TGI: 2.95 µM
EKVX NSCLC
  GI50: 0.652 µM
  TGI: 22.2 µM
NCI-H23 lung
  GI50: 0.474 µM
  TGI: 17.3 µM
PC-3 prostate
  GI50: 0.317 µM
  TGI: 16.2 µM
DU-145 prostate
  GI50: 0.432 µM
  TGI: 12.3 µM
RXF 393 renal
  GI50: 0.238 µM
  TGI: 18.6 µM
RPMI-8226 leukemia
  GI50: 0.348 µM
  TGI: 8.86 µM
UACC-62 melanoma
  GI50: 0.677 µM
  TGI: 17.7 µM
A549 NSCLC
  GI50: 0.476 µM
  TGI: 26.7 µM
SN12C renal
  GI50: 0.722 µM
  TGI: 13.9 µM
SW-620 colon
  GI50: 0.172 µM
  TGI: 14.7 µM
NCI-H460 lung
  GI50: 0.335 µM
  TGI: 1.34 µM
OVCAR-5 ovarian
  GI50: 0.545 µM
  TGI: 18.8 µM
UACC-257 melanoma
  GI50: 11 µM
  TGI: 38.2 µM
K-562 leukemia
  GI50: 0.0796 µM
  TGI: > 43.5 µM
HS 578T breast
  GI50: 0.226 µM
  TGI: 2.94 µM
UO-31 renal
  GI50: 0.282 µM
  TGI: 24.8 µM
HCT-116 colon
  GI50: 0.275 µM
  TGI: 5.41 µM
MALME-3M melanoma
  GI50: 0.617 µM
  TGI: 22.9 µM
SF-539 CNS
  GI50: 0.233 µM
  TGI: 0.792 µM
OVCAR-8 ovarian
  GI50: 0.542 µM
  TGI: > 57.7 µM
MCF7 breast
  GI50: 0.383 µM
  TGI: 15.2 µM
TK-10 renal
  GI50: 4.95 µM
  TGI: 44.1 µM
SK-MEL-28 melanoma
  GI50: 1.92 µM
  TGI: 22.9 µM
SK-MEL-5 melanoma
  GI50: 0.487 µM
  TGI: 4.87 µM
NCI-H226 lung
  GI50: 1.52 µM
  TGI: 13.2 µM
MDA-MB-231 breast
  GI50: 0.571 µM
  TGI: 14.6 µM
SR leukemia
  GI50: 0.107 µM
  TGI: 22.1 µM
CAKI-1 renal
  GI50: 0.167 µM
  TGI: 20.9 µM
SF-295 CNS
  GI50: 0.233 µM
  TGI: 11.3 µM
SF-268 CNS
  GI50: 1.11 µM
  TGI: 15.5 µM
OVCAR-4 ovarian
  GI50: 1.13 µM
  TGI: 20.4 µM
HOP-92 NSCLC
  GI50: 2.24 µM
  TGI: 15.1 µM
U251 CNS
  GI50: 0.407 µM
  TGI: 17.1 µM
LOX IMVI melanoma
  GI50: 0.479 µM
  TGI: 12.1 µM
OVCAR-3 ovarian
  GI50: 0.197 µM
  TGI: 0.493 µM
ACHN renal
  GI50: 0.718 µM
  TGI: 19.6 µM
A498 renal
  GI50: 0.0845 µM
  TGI: 0.496 µM
NCI/ADR-RES ovarian
  GI50: 0.133 µM
  TGI: 5.62 µM
IGROV1 ovarian
  GI50: 0.455 µM
  TGI: 15.4 µM
786-0 renal
  GI50: 0.754 µM
  TGI: 16.4 µM
COLO 205 colon
  GI50: 0.362 µM
  TGI: 12.9 µM
SK-MEL-2 melanoma
  GI50: 0.558 µM
  TGI: 18 µM
NCI-H522 lung
  GI50: 0.0848 µM
  TGI: 3.22 µM
HOP-62 NSCLC
  GI50: 0.374 µM
  TGI: 17.3 µM
SNB-19 CNS
  GI50: 0.59 µM
  TGI: 23.1 µM
HL-60(TB) leukemia
  GI50: 0.27 µM
  TGI: 0.776 µM
SK-OV-3 ovarian
  GI50: 0.628 µM
  TGI: 43.3 µM
